# Measurements published in patent US8740872B2, “Magnetically-targeted treatment for cardiac disorders” (The Board of Regents of the University of Oklahoma, priority 2010, dated 2014).
# Legend:
# [1] = system: neurotransmitter release at the synapse; settings: cited from earlier work
# [2] = dog, in vivo
# Description: In 6 other animals, 1.6 mg of NIPA-M (twice the amount of NIPA-M incorporated into one trans-coronary delivery) was directly injected into the left ventricle. NIPA-M used in these experiments was not incorporated into the hydrogel in order to simulate the greatest possible toxic challenge should the total NIPA-M dose be released instantly into the circulation from trans-coronary infusion. Serum samples before and 9.7±0.3 hours after NIPA-M injection were collected for paired analysis to assess renal and hepatic toxicity.
# neurons = settings: cited from earlier work
# [3] = in vivo; cited from earlier work
Compound,duration of inhibition of neurotransmitter release at the synapse [1],BUN/creatine ratio [2],alanine aminotransferase (ALT) [2] [U/L],blood urea nitrogen (BUN) [2] [mmol/L],serum creatinine [2] [mmol/L],LD50% to kill 50% neurons (neurons) [mM],neuropathy following prolonged oral exposure [3]
botulinum toxin-A [BtA],3-6 months,,,,,,
"C=CC(=O)NC(C)C [NIPA-M, N-isopropyl acrylamide monomer]",,17.6±1.7,41.3±8.7,16.2 ± 2.9,0.9 ± 0.1,5 to 8,"induce clinical (ataxia, rotorod performance deficits) and morphological (tibial nerve degeneration) signs of neuropathy"
